Source: patent publication US9085555B2, “Complement pathway modulators and uses thereof” (priority 2011, dated 2015)

Target: Factor D (Homo sapiens (Human), UniProt P00746)
Test: biochemical
Assay type: biochemical
Conditions: read-out: IC50

Factor D, sequence (P00746 26-253): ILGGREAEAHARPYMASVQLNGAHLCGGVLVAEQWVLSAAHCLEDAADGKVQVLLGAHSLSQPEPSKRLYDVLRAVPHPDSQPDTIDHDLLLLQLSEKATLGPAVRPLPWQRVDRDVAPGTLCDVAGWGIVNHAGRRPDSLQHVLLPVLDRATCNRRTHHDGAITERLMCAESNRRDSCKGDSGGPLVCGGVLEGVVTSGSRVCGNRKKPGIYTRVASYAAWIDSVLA

Row | SMILES | IC50 [µM]
1 | CN1CCN(C(=O)c2cc(Cl)c(F)c(CNC(=O)[C@@H]3C[C@@H](F)CN3C(=O)Nc3cn(C(N)=O)c4ccccc34)c2)CC1 [Example 322, (2S,4R)-4-Fluoro-pyrrolidine-1,2-dicarboxylic acid 1-[(1-carbamoyl-1H-indol-3-yl)-amide] 2-[3-chloro-2-fluoro-5-(4-methyl-piperazine-1-carbonyl)-benzylamide]] | 0.348
2 | NC(=O)n1cc(NC(=O)N2C[C@H](F)C[C@H]2C(=O)Nc2ccncc2F)c2ccccc21 [Example 323, (2S,4R)-4-Fluoro-pyrrolidine-1,2-dicarboxylic acid 1-[(1-carbamoyl-1H-indol-3-yl)-amide] 2-[(3-fluoro-pyridin-4-yl)-amide]] | 0.902
3 | NC(=O)c1cccc(NC(=O)[C@@H]2CCCN2C(=O)Nc2cn(C(N)=O)c3ccccc23)c1 [Example 324, (S)-Pyrrolidine-1,2-dicarboxylic acid 1-[(1-carbamoyl-1H-indol-3-yl)-amino] 2-[(3-carbamoyl-phenyl)-amide]] | 4.25
4 | CS(=O)(=O)c1cccc(NC(=O)[C@@H]2CCCN2C(=O)Nc2cn(C(N)=O)c3ccccc23)c1 [Example 325, (S)-Pyrrolidine-1,2-dicarboxylic acid 1-[(1-carbamoyl-1H-indol-3-yl)-amide] 2-[(3-methanesulfonyl-phenyl)-amide]] | 2.25
5 | NC(=O)n1cc(NC(=O)N2C[C@H](F)C[C@H]2C(=O)Nc2ncccc2F)c2ccccc21 [Example 327, (2S,4R)-4-Fluoro-pyrrolidine-1,2-dicarboxylic acid 1-[(1-carbamoyl-1H-indol-3-yl)-amide] 2-[(3-fluoro-pyridin-2-yl)-amide]] | 1.7
6 | CN(C)CCN(C)c1cc(Cl)c(F)c(CNC(=O)[C@@H]2C[C@@H](F)CN2C(=O)Nc2cn(C(N)=O)c3ccccc23)c1 [Example 329, (2S,4R)-4-Fluoro-pyrrolidine-1,2-dicarboxylic acid 1-[(1-carbamoyl-1H-indol-3-yl)-amide] 2-{3-chloro-5-[(2-dimethylamino-ethyl)-methyl-amino]-2-fluoro-benzylamide}] | 0.181
7 | CC(C)(C)c1cccc(NC(=O)[C@@H]2CC3CC3N2C(=O)Nc2cn(C(N)=O)c3ccccc23)c1 (stereo partly drawn) [Example 330, (1R,3S,5R)-2-Aza-bicyclo[3.1.0]hexane-2,3-dicarboxylic acid 3-[(3-tert-butyl-phenyl)-amide] 2-[(1-carbamoyl-1H-indol-3-yl)-amide]] | 0.25
8 | NC(=O)n1cc(NC(=O)N2C[C@@H](O)C[C@H]2C(=O)NCc2cccc(Cl)c2F)c2ccccc21 [Example 331, (2S,4S)-4-Hydroxy-pyrrolidine-1,2-dicarboxylic acid 1-[(1-carbamoyl-1H-indol-3-yl)-amide] 2-(3-chloro-2-fluoro-benzylamide)] | 0.035
9 | CCOC(=O)c1cc(Br)c(F)c(NC(=O)[C@@H]2C[C@@H](F)CN2C(=O)Nc2cn(C(N)=O)c3ccccc23)c1 [Example 333, 3-Bromo-5-{[(2S,4R)-1-(1-carbamoyl-1H-indol-3-ylcarbamoyl)-4-fluoro-pyrrolidine-2-carbonyl]-amino}-4-fluoro-benzoic acid ethyl ester] | 0.047
10 | C=CCOc1ccc2c(c1)c(NC(=O)N1CCC[C@H]1C(=O)Nc1cccc(OC(F)(F)F)c1)cn2C(N)=O [Example 335, (S)-Pyrrolidine-1,2-dicarboxylic acid 1-[(5-allyloxy-1-carbamoyl-1H-indol-3-yl)-amide] 2-[(3-trifluoromethoxy-phenyl)-amide]] | 0.55
11 | C[C@@H]1CC[C@@H](C(=O)Nc2cccc(OC(F)(F)F)c2)N1C(=O)Nc1cn(C(N)=O)c2ccccc12 [Example 336, (2S,5R)-5-Methyl-pyrrolidine-1,2-dicarboxylic acid 1-[(1-carbamoyl-1H-indol-3-yl)-amide]2-[(3-trifluoromethoxy-phenyl)-amide]] | 0.75
12 | C[C@H]1CC[C@@H](C(=O)Nc2cccc(OC(F)(F)F)c2)N1C(=O)Nc1cn(C(N)=O)c2ccccc12 [Example 337, (2S,5S)-5-Methyl-pyrrolidine-1,2-dicarboxylic acid 1-[(1-carbamoyl-1H-indol-3-yl)-amide]2-[(3-trifluoromethoxy-phenyl)-amide]] | 0.25
13 | CC[C@@H]1CC[C@@H](C(=O)Nc2cccc(OC(F)(F)F)c2)N1C(=O)Nc1cn(C(N)=O)c2ccccc12 [Example 338, (2S,5R)-5-Ethyl-pyrrolidine-1,2-dicarboxylic acid 1-[(1-carbamoyl-1H-indol-3-yl)-amide]2-[(3-trifluoromthoxy-phenyl)-amide]] | 18.9
14 | NC(=O)n1cc(NC(=O)N2C[C@H](F)C[C@H]2C(=O)Nc2cc(Cl)cc(C(=O)O)c2)c2ccccc21 [Example 339, 3-Chloro-5-{[(2S,4R)-1-(1-carbamoyl-1H-indol-3-ylcarbamoyl)-4-fluoro-pyrrolidine-2-carbonyl]-amino}-benzoic acid] | 0.065
15 | NC(=O)n1cc(NC(=O)N2CCS[C@H]2C(=O)Nc2cc(Br)cc(C(=O)O)c2)c2ccccc21 [Example 341, 3-Bromo-5-{[(S)-3-(1-carbamoyl-1H-indol-3-ylcarbamoyl)-thiazolidine-2-carbonyl]-amino}-benzoic acid] | 0.095
16 | COc1ccc2c(c1)c(NC(=O)N1[C@@H]3C[C@@H]3C[C@H]1C(=O)Nc1cc(Br)cc(C(=O)O)c1)cn2C(N)=O [Example 342, 3-Bromo-5-{[(1R,3S,5R)-2-(1-carbamoyl-5-methoxy-1H-indol-3-ylcarbamoyl)-2-aza-bicyclo[3.1.0]hexane-3-carbonyl]-amino}-benzoic acid] | 0.055
17 | NC(=O)n1cc(NC(=O)N2C[C@H](F)C[C@H]2C(=O)Nc2cc(C(=O)O)cc(Br)c2F)c2ccccc21 [Example 343, 3-Bromo-5-{[(2S,4R)-1-(1-carbamoyl-1H-indol-3-ylcarbamoyl)-4-fluoro-pyrrolidine-2-carbonyl]-amino}-4-fluoro-benzoic acid] | 0.03
18 | NC(=O)n1cc(NC(=O)N2[C@@H]3C[C@@H]3C[C@H]2C(=O)Nc2cc(Br)cc(-c3nnn[nH]3)c2)c2ccccc21 [Example 344, (1R,3S,5R)-2-Aza-bicyclo[3.1.0]hexane-2,3-dicarboxylic acid 3-{[3-bromo-5-(1H-tetrazol-5-yl)-phenyl]-amide}2-[(1-carbamoyl-1H-indol-3-yl)-amide]] | 0.068
19 | CC(C)(C)n1nnnc1-c1cc(Br)cc(NC(=O)[C@@H]2C[C@H]3C[C@H]3N2C(=O)Nc2cn(C(N)=O)c3ccccc23)c1 [Example 345, (1R,3S,5R)-2-Aza-bicyclo[3.1.0]hexane-2,3-dicarboxylic acid 3-{[3-bromo-5-(1-tert-butyl-1H-tetrazol-5-yl)-phenyl]-amide}2-[(1-carbamoyl-1H-indol-3-yl)-amide]] | 0.8
20 | NC(=O)n1cc(NC(=O)N2C[C@H](F)C[C@H]2C(=O)NCc2cc(-c3nnn[nH]3)cc(Cl)c2F)c2ccccc21 [Example 346, (2S,4R)-4-Fluoro-pyrrolidine-1,2-dicarboxylic acid 1-[(1-carbamoyl-1H-indol-3-yl)-amide]2-[3-chloro-2-fluoro-5-(1H-tetrazol-5-yl)-benzylamide]] | 0.069
21 | CC(C)(C)n1nnnc1-c1cc(Cl)c(F)c(CNC(=O)[C@@H]2C[C@@H](F)CN2C(=O)Nc2cn(C(N)=O)c3ccccc23)c1 [Example 347, (2S,4R)-4-Fluoro-pyrrolidine-1,2-dicarboxylic acid 2-[5-(1-tert-butyl-1H-tetrazol-5-yl)-3-chloro-2-fluoro-benzylamide]1-[(1-carbamoyl-1H-indol-3-yl)-amide]] | 0.677
22 | NC(=O)n1cc(NC(=O)N2CC[C@H](F)[C@H]2C(=O)NCc2cccc(Cl)c2)c2ccccc21 [Example 348, 2R,3S)-3-Fluoro-pyrrolidine-1,2-dicarboxylic acid 1-[(1-carbamoyl-1H-indol-3-yl)-amide]2-(3-chloro-benzylamide] | 0.2
23 | NC(=O)n1cc(NC(=O)N2CC[C@@H](F)[C@H]2C(=O)NCc2cccc(Cl)c2)c2ccccc21 [Example 349, 2R,3R)-3-Fluoro-pyrrolidine-1,2-dicarboxylic acid 1-[(1-carbamoyl-1H-indol-3-yl)-amide]2-(3-chloro-benzylamide] | 0.15
24 | C[C@@H]1CC[C@@H](C(=O)NCc2cccc(Cl)c2F)N1C(=O)Nc1cn(C(N)=O)c2ccccc12 [Example 350, 2S,5R)-5-Methyl-pyrrolidine-1,2-dicarboxylic acid 1-[(1-carbamoyl-1H-indol-3-yl)-amide]2-(3-chloro-2-fluoro-benzylamide] | 0.085
25 | CC[C@@H]1CC[C@@H](C(=O)NCc2cccc(Cl)c2F)N1C(=O)Nc1cn(C(N)=O)c2ccccc12 [Example 351, 2S,5R)-5-Ethyl-pyrrolidine-1,2-dicarboxylic acid 1-[(1-carbamoyl-1H-indol-3-yl)-amide]2-(3-chloro-2-fluoro-benzylamide] | 0.6
26 | NC(=O)n1cc(NC(=O)N2C[C@H](CO)C[C@H]2C(=O)NCc2cccc(Cl)c2F)c2ccccc21 [Example 352, 2S,4R)-4-Hydroxymethyl-pyrrolidine-1,2-dicarboxylic acid 1-[(1-carbamoyl-1H-indol-3-yl)-amide]2-(3-chloro-2-fluoro-benzylamide] | 0.2
27 | COC(=O)[C@H]1C[C@@H](C(=O)NCc2c(F)ccc(Cl)c2F)N(C(=O)Nc2cn(C(N)=O)c3ccccc23)C1 [Example 353, (3S,5S)-1-(1-carbamoyl-1H-indol-3-ylcarbamoyl)-5-(3-chloro-2,6-difluoro-benzylcarbamoyl)-pyrrolidine-3-carboxylic acid methyl ester] | 0.252
28 | NC(=O)n1cc(NC(=O)N2C[C@@H](C(=O)O)C[C@H]2C(=O)NCc2c(F)ccc(Cl)c2F)c2ccccc21 [Example 354, (3S,5S)-1-(1-Carbamoyl-1H-indol-3-ylcarbamoyl)-5-(3-chloro-2,6-difluoro-benzylcarbamoyl)-pyrrolidine-3-carboxylic acid] | 1.66
29 | NC(=O)n1cc(NC(=O)N2C[C@@H](CO)C[C@H]2C(=O)NCc2cccc(Br)c2F)c2ccccc21 [Example 355, (2S,4S)-4-Hydroxymethyl-pyrrolidine-1,2-dicarboxylic acid 2-(3-bromo-2-fluoro-benzylamide) 1-[(1-carbamoyl-1H-indol-3-yl)-amide]] | 0.104
